Here are results for one compound from patent publication US9090651B2, “Helix 12 directed pharmaceutical products” (ENDORECHERCHE, INC., priority 2004, dated 2015).

One experiment concerns rat prostate. Kind of experiment: Systemic antiandrogenic activity, orchidectomized immature male rats with DHT implant: prostate weight. Type of experiment: in vivo.
In another experiment the test system is rat seminal vesicle. As to the kind of experiment: Systemic antiandrogenic activity, orchidectomized immature male rats with DHT implant: seminal vesicle weight. Type of experiment: in vivo.
Experiment [1] concerns ventral prostate, seminal vesicle and levator ani. As to the kind of experiment: In vivo assessment of SARM effect on immature rats. The arrangement: species or system rat. As to the method:
Immature male rats (Crl:CD(SD)Br) 22 to 24-day old were obtained from Charles-River, Inc. (St-Constant, Quebec, Canada) and housed up to 5 per cage in plastic bins in a temperature (23±1° C.)- and light (12 h light/day, lights on at 7 h15)-controlled environment. The rats were fed rodent chow and tap water ad libitum. The day following their arrival, the animals were orchidectomized (CX) under Isoflurane anesthesia via scrotal route and randomly assigned to groups of 5 animals.
To evaluate the antiandrogenic activity, tested compounds were administered subcutaneously once daily at a dose of 0.5 mg/animal for antiandrogenitic activity or 0.2 mg/animal for androgenic activity for 7 days (SD 1 to 7). Compounds were solubilized (when possible) in dimethylsulfoxide (DMSO, 10% final concentration) and administered as suspension in 0.4% methylcellulose. […] One group of animals received the antiandrogen Flutamide as reference. The animals were killed by cervical dislocation under isoflurane anesthesia on the 8th morning following castration. The ventral prostate and seminal vesicles were rapidly dissected and weighed.

A further experiment has as its target T1, Human Androgen Receptor (Homo sapiens, UniProt P10275).
T1 sequence (P10275 1-920): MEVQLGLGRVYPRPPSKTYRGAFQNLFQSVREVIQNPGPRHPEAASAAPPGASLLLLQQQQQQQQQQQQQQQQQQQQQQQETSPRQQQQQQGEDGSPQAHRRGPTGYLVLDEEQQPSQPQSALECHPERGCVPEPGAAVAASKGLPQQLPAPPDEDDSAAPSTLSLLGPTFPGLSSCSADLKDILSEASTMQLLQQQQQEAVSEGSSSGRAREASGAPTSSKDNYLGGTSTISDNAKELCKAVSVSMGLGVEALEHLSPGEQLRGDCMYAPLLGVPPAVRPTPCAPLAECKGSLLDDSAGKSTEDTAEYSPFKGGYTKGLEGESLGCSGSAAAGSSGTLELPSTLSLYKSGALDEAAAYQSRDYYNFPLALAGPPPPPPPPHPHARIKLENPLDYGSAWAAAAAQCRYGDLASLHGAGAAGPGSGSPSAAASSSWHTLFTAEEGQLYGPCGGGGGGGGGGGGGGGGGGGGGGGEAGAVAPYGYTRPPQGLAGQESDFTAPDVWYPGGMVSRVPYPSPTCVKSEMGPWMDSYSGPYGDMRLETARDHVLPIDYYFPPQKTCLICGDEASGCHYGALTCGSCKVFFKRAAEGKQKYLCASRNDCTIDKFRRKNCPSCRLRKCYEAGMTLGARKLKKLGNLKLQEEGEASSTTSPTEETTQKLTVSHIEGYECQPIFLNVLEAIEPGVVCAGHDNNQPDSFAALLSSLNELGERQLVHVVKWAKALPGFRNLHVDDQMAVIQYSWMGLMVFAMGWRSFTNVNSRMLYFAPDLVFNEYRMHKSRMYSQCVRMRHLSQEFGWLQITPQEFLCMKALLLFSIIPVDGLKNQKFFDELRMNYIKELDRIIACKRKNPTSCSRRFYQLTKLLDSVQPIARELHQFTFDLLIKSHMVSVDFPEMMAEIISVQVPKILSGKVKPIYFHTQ
Kind of experiment: Androgen receptor binding assay (hydroxylapatite, [3H]R1881, cytosol of transfected HEK-293 cells). Conditions: % RBA=100×IC50 R1881/IC50 compound, transfected cells.

The mark [2] stands for this setting: 0.5 mg/day s.c., DHT 1-cm length implant.
The mark [3] stands for this setting: 0.2 mg/day s.c., absence of exogenous androgens, immature rats.

For the compound `CC(NC1CCCC1)c1cccc(OCC[C@]23CCC4C5CCC(=O)C=C5C[C@H](C)C4C2CC[C@@]3(C)O)c1` (stereo in doubt) [EM-7216], the “inhibition of the stimulated weight of ventral prostate” value in the experiment on rat prostate (setting [2]) is 28%. The inhibition in vivo at 0.5 mg in the experiment on rat prostate (Rattus norvegicus, sc, 168 h, read-out: IN VIVO Rat s.c. (+DHT) Prostate % inhibition, s.c., 0.5 mg/animal once daily for 7 days, +DHT) worked out at 28%. Moreover, the “inhibition of the stimulated weight of seminal vesicle” value with rat seminal vesicle (setting [2]) is “no inhibiting effect”. In addition, the inhibition in vivo at 0.5 mg with rat seminal vesicle (Rattus norvegicus, sc, 168 h, read-out: IN VIVO Rat s.c. (+DHT) SV % inhibition, s.c., 0.5 mg/animal once daily for 7 days, +DHT) was 0%. Moreover, in experiment [1] (setting [3]), the “stimulation of the weight of levator ani” value is given as 238, the “stimulation of the weight of seminal vesicle” value is reported as 200% and the “stimulation of the weight of ventral prostate” value is listed as 370%. For the same compound, the “inhibition of the stimulated weight of levator ani” value in experiment [1] (setting [2]) is “no inhibiting effect”. In addition, the “Androgen Receptor Binding (%) Human RBA R1881 = 100” value at Human Androgen Receptor is listed as 77%.
